Results as given in patent publication US7786176B2, “Vaginal treatment composition containing xylitol” (Kimberly-Clark Worldwide, Inc., priority 2005, dated 2010).
“Also recorded” adds a separate entry of the source.

Assays:
Type in all cases: cell-based
[1] = tested on: Gardnerella vaginalis; assay: Gardnerella vaginalis plate count after treatment with gel compositions (Example 6)
Description: Gardnerella vaginalis was obtained from the American Type Culture Collection (ATCC #14018). The culture medium was Casman's medium base (BD 229010) with 5% rabbit blood (ATCC medium 70).
Initially, eight (8) solutions were formed as set forth below in Table 4.
Samples 1-2 were prepared by dissolving the KELCOGEL® (0.07 grams) and/or xylitol (0.44 grams) into 10 milliliters of water heated to between 70° C. to 80° C. Samples 3-4 and 6 were formed by first autoclaving a gallic acid stock solution (0.75 grams of gallic acid/20 mL water), autoclaving, and then adding 200 microliters of sterile gallic acid (0.0075 grams) to each sterile solution. Sample 5 was formed by dissolving 0.44 grams of xylitol in deionized water, followed by autoclaving. Sample 7 was formed by dissolving 0.44 grams of xylitol in sterilized growth medium for Gardnerella vaginalis and then filtering. The amount of xylitol was selected to yield isotonic solutions. […]
Upon formation, 1 milliliter of each control or sample solution was then added into a culture tube, followed by the addition of 0.8 milliliters of growth medium for Gardnerella vaginalis. […] After 24 and 48 hours, the optical density was measured for each sample at wavelengths of 450 and 595 nanometers. […] The number of colonies on each plate was counted using ProtoCol® software from Synbiosis of Frederick, Md. […]

[2] = tested on: Gardnerella vaginalis; assay: Zone of inhibition on agar plates, Gardnerella vaginalis (Examples 8, 11)
Description: (§1) A microorganism culture of 10^5 cfu (colony forming units)/ml in a 1× phosphate buffered saline (PBS) solution (diluted from 10×PBS LIQUID CONCENTRATE from VWR Cat. No. EM-6507] was used. One milliliter of the solution was plated on proper agar plates, depending on which microorganism was being tested. The agar plates were incubated at 35° C. for 4 hours. Three 4-millimeter diameter wells were then punched in each agar plate. A test sample of 100 microliters of 5% xylitol in sterilized 2-N-morpholino ethane sulfonic buffer (0.1 M 2-[morpholino]-ethanesulfonic acid, 0.9% NaCl, pH 4.7, prepared from BupH™ MES Buffer Saline Pack from Cat. No. 28390, Pierce Biotechnology, Inc., Rockford, Ill.) was added to one well of each plate. Into each of the other two wells were added MES buffer and 1% benzyl quats (diluted from BARDAC.® 205M, from Lonza Inc., Fair Lawn, N.J.) as negative and positive controls, respectively. The plates were incubated overnight at 35° C.
(§2) The following day, the “zone of inhibition” for each sample was then measured for Gardnerella vaginalis and Lactobacillus acidophilus activity. The “zone of inhibition” is a circular zone formed around the agar plate in which the growth of the microorganism is inhibited. […] However, when growth is inhibited, a clear zone is observed. The diameter of this clear zone may thus be used as an indicator of antimicrobial effectiveness.
(§3) Sorbitol, glucose, and xylitol were tested as described in Example 8.

[3] = tested on: Lactobacillus acidophilus; assay: Zone of inhibition on agar plates, Lactobacillus acidophilus (Examples 8, 11)
Description: as §1, §2, §3

[4] = tested on: Gardnerella vaginalis; assay: Optical density growth test, Gardnerella vaginalis (Example 9); settings: 2, 4, 6 and 24 hours, FIG. 5
Description: (§4) Test compounds were dissolved in culture media to form a suspension. Control or xylitol solutions (0.9 milliliters) were filtered and added into culture tubes, and to this was added 0.1 milliliter of either the Gardnerella vaginalis or Lactobacillus acidophilus suspension at a concentration of around 10^6 cfu/milliliter. The culture tubes were then incubated overnight at 37° C., whereafter the optical density was measured at 2, 4, 6 and 24 hours by pipetting 100 microliters of the control or sample solutions into 96-well microplates, and then using a ThermoMax Microplate Reader (Molecular Devices of Sunnyvale, Calif.) to obtain the optical density readings at 590 or 600 nm wavelengths. […] The inhibition effect remained evident throughout the 24-hour experimental period.

[5] = tested on: Lactobacillus acidophilus; assay: Optical density growth test, Lactobacillus acidophilus (Example 9); settings: 2, 4, 6 and 24 hours, FIG. 7
Description: as §4

[6] = tested on: Gardnerella vaginalis; assay: Plate count after 6 hours treatment, Gardnerella vaginalis (Example 10); settings: all five concentrations, 1-5%
Description: (§5) Test compounds were dissolved in culture media to form a suspension. Control or xylitol solutions (0.9 milliliters) were filtered and added into culture tubes. To these solutions, 0.1 milliliter of the Gardnerella vaginalis or Lactobacillus acidophilus suspension was then added at a concentration of around 10^6 cfu/milliliter. The culture tubes were incubated at 37° C. for 6 hours. The samples in the culture tubes were then diluted at 1, 10 and 100 times, and 100 microliters of each dilution was plated onto agar plates with WASP (Whitely Automatic Spiral Plate) spiral plating equipment from Don Whitely Scientific Limited, USA. The plates were incubated overnight at 35° C., and the numbers of colonies were counted on each plate by either ProtoCol® from Synbiosis, Frederick, Md., USA Whitely Scientific Limited, USA or by hand count. The results are shown below in Tables 7-8 and in FIG. 6.

[7] = tested on: Lactobacillus acidophilus; assay: Plate count after 6 hours treatment, Lactobacillus acidophilus (Example 10); settings: 1% and 5% xylitol
Description: as §5

[8] = tested on: Trichomonas vaginalis; assay: Viable Trichomonas vaginalis cell count with xylitol (Example 12)
Description: Trichomonas vaginalis was obtained from the American Type Culture Collection (ATCC #30001). The culture medium was LYI-S-2 medium (ATCC medium 2154).
A sterile LYI-S-2 medium was prepared according to the manufacturer's instructions, and the pH of this medium was adjusted to pH 6.0 using 1 N HCl. Xylitol was then dissolved into the LYI-S-2 medium at concentrations of 0.5%, 3.0%, and 5.0% (wt/vol). 0.9 milliliters of xylitol and culture medium (as control) were also added into different culture tubes. Thereafter, 0.1 milliliter of Trichomonas vaginalis culture suspension (concentration of 1×10^6/milliliter) was added to each of the culture tubes, and then incubated at 35° C. on a 15 degree horizontal slant. The viable Trichomonas vaginalis cells in each tube were counted under a microscope after 24 and 48 hours. The above procedure was repeated four times for each concentration of xylitol and the control.

[9] = tested on: Candida albicans; assay: Candida albicans viable cell count with xylitol (Example 14); settings: 24 hours; 1%, 2%, 3%, 4%, and 5.0% (wt/vol), FIG. 11
Description: A YM culture medium was prepared according to the manufacturer's instructions, and the pH of this medium was adjusted to pH 6.0 using 1 N HCl. Xylitol was then dissolved into the YM medium at concentrations of 1%, 2%, 3%, 4%, and 5.0% (wt/vol). 0.9 milliliters of the culture medium were also added into a different culture tube as a control. Thereafter, 0.1 milliliter of Candida albicans culture suspension (concentration of 1×10^6/milliliter) was added to each of the culture tubes, and then incubated at 37° C. The viable Candida albicans cells in each tube were counted under a microscope after 24 hours. The above procedure was repeated four times for each concentration and the control.

[10] = tested on: Gardnerella vaginalis; assay: Gardnerella vaginalis optical density with sugars and sugar derivatives (Example 15); settings: 24 hours; 1.0% (wt/vol), FIG. 12
Description: A growth medium for Gardnerella vaginalis was prepared according to the manufacturer's instructions, and the pH of this medium was adjusted to pH 6.0 using 1 N HCl. D-ribose (99%, Calbiochem), D-arabinose (98%, Alfa Aesar), D-xylose (Aldrich), D-lyxose (99%, Avovado), D-arabitol (97%, Alfa Aesar), adonitol (99%, Alfa Aesar), xylitol (99%, Alfa Aesar), xylitol (98%, Danisco), and xylitol (98%, Aldrich) were then dissolved into the growth medium at a concentration of 1.0% (wt/vol). 0.9 milliliters of the culture medium was also added into a different culture tube as a control. Thereafter, 0.1 milliliter of Gardnerella vaginalis culture suspension (concentration of 1×10^6/milliliter) was added to each of the culture tubes, and then incubated overnight at 37° C., and the optical density was then measured after 24 hours at a wavelength of 595 nanometers. This was accomplished by pipetting 100 microliters of the control or sample solutions into 96-well microplates, and then using a ThermoMax Microplate Reader from Molecular Devices of Sunnyvale, Calif. to obtain the optical density readings. The results are depicted in FIG. 12.

[11] = 5% in MES buffer pH 4.7, 100 microliters per well
[12] = zone of inhibition testing, concentrations as in Tables 6 and 9

Compound | Average Plate Count ([1]; 24-hr samples, 4.4 wt/vol % xylitol in growth medium) | Effect on Gardnerella vaginalis growth ([1]; Example 6) | Zone of inhibition, Gardnerella vaginalis [2, 11] | Zone of inhibition, Gardnerella vaginalis ([2]; 10%) | Effect on Gardnerella vaginalis [2, 12] | Zone of inhibition, Lactobacillus acidophilus [3, 11] | Zone of inhibition, Lactobacillus acidophilus ([3]; 10%) | Effect on Lactobacillus acidophilus [3, 12] | Inhibition of Gardnerella vaginalis growth (optical density) [4] | Inhibition of Lactobacillus acidophilus growth (optical density) [5] | Inhibition of Gardnerella vaginalis growth compared to control [6] | Inhibition of Lactobacillus acidophilus growth [7] | Trichomonas vaginalis cell count versus control ([8]; 24 hours, 0.5%, 3.0%, and 5.0% (wt/vol), FIG. 8) | Trichomonas vaginalis cell count versus control ([8]; 48 hours, FIG. 9) | Live Trichomonas vaginalis cells ([8]; 48 hours, 3% and 5% xylitol) | Candida albicans cell count versus control [9] | Gardnerella vaginalis cell count versus control (optical density 595 nanometers) [10]
OC[C@@H](O)[C@H](O)[C@@H](O)CO [xylitol] | 2.40 × 10^4 | significant inhibition | 4 mm | 4 mm | inhibited; also recorded: inhibitory effect | 0 mm | 0 mm | did not affect the growth | significant inhibition | did not exhibit any significant inhibition | significant inhibition | did not exhibit any significant inhibition | significantly reduced | even more significant inhibitory effect | No live Trichomonas vaginalis cells were observed | significantly reduced | significantly reduced
O=C[C@H](O)[C@H](O)[C@H](O)CO [D-ribose] |  |  |  |  |  |  |  |  |  |  |  |  |  |  |  |  | significantly reduced
